# How the values were obtained:
# oCOX-1 = target: T1, oCOX-1 (Ovis aries, UniProt P05979); settings: enzyme specific activity in the presence of arachidonic acid 100 µM and the inhibitor
# T1 sequence (P05979 25-600): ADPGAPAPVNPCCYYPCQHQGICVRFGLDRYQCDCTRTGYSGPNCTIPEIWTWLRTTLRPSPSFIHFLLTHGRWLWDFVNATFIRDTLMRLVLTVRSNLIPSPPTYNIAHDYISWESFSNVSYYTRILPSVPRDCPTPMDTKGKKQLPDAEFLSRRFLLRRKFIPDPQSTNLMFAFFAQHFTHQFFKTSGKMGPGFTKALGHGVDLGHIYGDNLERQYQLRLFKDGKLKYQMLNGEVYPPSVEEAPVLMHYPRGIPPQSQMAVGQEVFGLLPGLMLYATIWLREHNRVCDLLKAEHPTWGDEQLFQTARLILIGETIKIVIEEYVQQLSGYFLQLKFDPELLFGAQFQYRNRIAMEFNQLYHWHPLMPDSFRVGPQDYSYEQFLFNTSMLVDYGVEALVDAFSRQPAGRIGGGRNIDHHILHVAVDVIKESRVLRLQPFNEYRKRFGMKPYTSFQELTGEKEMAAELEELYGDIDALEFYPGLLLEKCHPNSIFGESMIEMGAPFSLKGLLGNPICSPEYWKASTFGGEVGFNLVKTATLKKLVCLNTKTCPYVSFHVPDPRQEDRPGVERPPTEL
# Protocol: (§1) Functional analysis of ovine and human COX-1 catalytic activity was determined by monitoring O2 consumption by using an Oxytherm electrode unit (Hansatech), in the presence of arachidonic acid and different inhibitors. The instrument is equipped with a Clark-type oxygen electrode to monitor the dissolved oxygen concentration in a sealed measurement chamber over the time. Oxygen consumption was measured at 37 °C directly in a 1000 µL reaction vessel. Briefly, it follows the description of a typical assay: Oxygraph buffer (the opportune volume is adjusted to 1000 µL of final volume according to the volume of the protein), 5 µM hemin (1 µL), 100 µM arachidonic acid (20 µL) and inhibitor (10 µL) at the opportune concentrations.
# (§2) Oxygen consumption determination (μmol/ml O2) started after the addition of the ovine or human COX-1/Sf9 sonicated pellet (C = 2.6 mg/ml) to the mixture containing Oxygraph buffer, arachidonic acid and test compounds at the opportune concentrations. Assay mixture was allowed to equilibrate in the reaction vessel at 37 °C for several minutes until steady baseline was recorded. Uninfected Sf9 sonicated cells were used as a negative control. Stock solutions were prepared in a minimum volume of vehicle (DMSO).
# hCOX-1 = hCOX-1 (Homo sapiens, UniProt P23219); settings: enzyme specific activity in the presence of arachidonic acid 100 µM and the inhibitor
# Sequence of hCOX-1 (P23219 24-599): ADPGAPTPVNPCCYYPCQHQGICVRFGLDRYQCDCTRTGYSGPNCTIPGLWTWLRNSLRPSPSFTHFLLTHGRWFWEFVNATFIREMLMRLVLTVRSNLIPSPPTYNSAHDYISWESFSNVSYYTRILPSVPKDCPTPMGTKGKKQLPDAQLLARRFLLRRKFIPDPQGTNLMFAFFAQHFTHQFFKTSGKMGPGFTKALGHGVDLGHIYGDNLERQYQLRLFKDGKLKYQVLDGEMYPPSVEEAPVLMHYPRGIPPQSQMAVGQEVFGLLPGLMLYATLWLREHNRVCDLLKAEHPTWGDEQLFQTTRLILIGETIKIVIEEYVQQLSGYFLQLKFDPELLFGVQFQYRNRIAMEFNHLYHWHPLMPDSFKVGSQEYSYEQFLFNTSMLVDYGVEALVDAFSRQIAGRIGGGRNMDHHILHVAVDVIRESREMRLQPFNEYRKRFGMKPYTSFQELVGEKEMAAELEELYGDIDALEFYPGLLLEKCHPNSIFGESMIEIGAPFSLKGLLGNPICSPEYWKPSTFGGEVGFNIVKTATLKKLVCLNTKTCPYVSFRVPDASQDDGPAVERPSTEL
# Protocol: as §1, §2
smiles,measurement,setting,value
COc1ccc(-c2noc(CC(=O)O)c2-c2ccc(OC)cc2)cc1 [mofezolac],Specific activity oCOX-1,oCOX-1,3.5 µmol/min/mg
same,Specific activity hCOX-1,hCOX-1,4.5 µmol/min/mg

# From publication PMC7900114, “Three-dimensional structure of human cyclooxygenase (hCOX)-1” (Scientific Reports, 2021)
